Experiments:
TRH-DE [1] = target: T1, TRH-DE (Sus scrofa, UniProt A0A287AP33); conditions: From Ref. 23 (inventor's publication); cited from earlier work
T1 construct: The inventor purified TRH-DE from porcine brain according to purification procedures previously published by Dr. K. Bauer; from tissue; host or cells: porcine brain (TRH-DE); bovine kidney (DPP-IV, gift from Dr. C. H. Williams)

Male Wistar rats [2] = assay: behavioural effects (WDS, locomotion) after i.c.v. administration; format: in vivo, rat; conditions: 30 min
Description: Methods: Behavioural studies were conducted using experimentally naïve Male Wistar rats (200-250 g) maintained in a temperature controlled (21° C.), artificially-lighted (12 hr light cycle) room with free access to food and water. Behavioural effects of […] following intra-cerebroventricular (i.c.v.) administration: Animals were implanted with guide cannula aimed at the lateral cerebral ventricles (AP-0.92 mm, ML-1.5 mm, DV-2.6 mm relative to Bregma, atlas of Paxinos & Watson) under halothane anaesthesia. One week following surgery placement of the cannulae was assessed by the ability of a microinjection of angiotensin II (200 ng in 1 μl) to induce drinking behaviour. […] They were then administered either vehicle (1 μl 0.9% saline) or […] (5 μg in 1 μl) followed 1 minute later by vehicle (1 μl 0.9% saline) or TRH (5 μg in 1 μl). One minute after the last i.c.v. injection animals were placed back into the perspex cage and their behaviour monitored by a computer automated tracking system for 30 minutes (Ethovision Pro, Noldus) to provide measures of locomotor activity. Animals were videotaped for subsequent blind analysis of WDS behaviour by a trained observer. A threshold dose of 5 μg TRH was chosen for i.c.v. administration so that if […] enhanced responses to TRH, this would be clearly visible. The statistical significance of differences between behavioural effects of treatments was determined using the Student's t-test or ANOVA, followed by a post-ANOVA test, as indicated. Radioligand binding data were analysed using non-linear curve fitting software (Prism, Graph Pad Software Inc.). IC50 values calculated from competition experiments were converted to Ki values using the Cheng-Prusoff (41) equation Ki=IC50/(1+L/Kd), where L=ligand concentration and Kd=the apparent dissociation constant for [^3[…].

TRH-DE [3] = target: T1, TRH-DE; assay: HPLC assay of peptide hydrolysis by TRH-DE (Glp production); format: biochemical, porcine; conditions: for hydrolysis by TRH-DE (release of Glp): 1 mM peptide incubated with TRH-DE 18 h at 37° C., HPLC
Description: The inventor purified TRH-DE from porcine brain according to purification procedures previously published by Dr. K. Bauer, (Max-Planck-Institut, Hannover, Germany) (1). TRH-DE was purified almost 20,000 fold. […] Dipeptidyl peptidase IV (DPP-IV) (EC 3.4.14.5), purified from bovine kidney (7.7 mg ml^−1, specific activity of 17.5 U mg^−1 with Gly-ProAMC as substrate), was obtained as a gilt from Dr. C. H. Williams (Queen's University Belfast, U.K). (DPP-IV was used as the coupling enzyme used in the fluorometric assays).
One unit (U) of enzyme activity was defined as that amount catalysing the formation of one μmol of product in one minute under the standard conditions employed. All incubations in the assays described below were carried out in 20 mM potassium phosphate buffer, pH 7.5, at 37° C.
Kinetic analysis of the peptide library using HPLC—The ability of each peptide in the library to act as a TRH-DE substrate was assessed using HPLC. As an initial screen, 1 mM peptide was incubated with 0.8 μg TRH-DE in a total volume of 1 ml for 18 h at 37° C. Control samples were included in which peptide (1 mM) or Glp (0.2 mM-0.8 mM) were incubated under identical conditions in the absence of TRH-DE. TRH-DE activity was terminated by the addition of TFA (0.15% v/v) and samples were then analysed using HPLC as described previously (24). Products resulting from TRH-DE hydrolysis could be separated on a C-18 reverse-phase column (Hypersil, UK) using a linear gradient of 0-70% acetonitrile in 0.08% (v/v) TFA. The concentration of Glp formed by the action of TRH-DE on the peptide library was measured by UV absorbance at 206 nm with a quantitative detection limit of 0.1 mM for a 40 μl injection volume, employing a signal to noise ratio of 10. Following the incubation of each peptide with TRH-DE, evidence of Glp in the sample was taken to indicate that the peptide was a TRH-DE substrate.
The rates of hydrolysis for each of those peptides identified as substrates were then compared by measuring Gip production using microassays with shorter incubation times. In these assays peptide (1 mM) was incubated at 37° C. in a total volume of 100 μl. 0.8-3.2 μg TRH-DE and incubations times of 5 min to 18 h were used routinely. Measurements were made in triplicate. The rate of TRH-OH hydrolysis was also measured by this method.

[4] = target: TRH receptors in rat cortical membranes; assay: radioligand binding to ^3H-3MeHis-TRH-labelled receptors in rat cortex; conditions: competition with 6-8 nM ^3H-3MeHis-TRH, Cheng-Prusoff
Description: Evaluation of the ability of TRH, Glp-Asn-ProNH2, and Glp-Asn-ProAMC to bind to ^3H-3MeHis-TRH-labelled receptors in rat cortex: Radioligand binding assays were conducted to investigate the possibility that the two TRH-DE inhibitors might exert their effects by acting independently at TRH receptors in the brain.
Cortex tissue from male Sprague-Dawley rats (250 g) was dissected out, weighed and homogenised in 30 volumes of ice-cold sodium phosphate buffer (0.02 M, pH 7.5). The homogenates were centrifuged at 30,000 g at 4° C. for 30 min. The supernatant was discarded and the pellet was resuspended at 100 mg wet wt/ml in buffer containing 177 μM bacitracin. […] Non-specific binding was defined in the presence of 10 μM TRH.
The statistical significance of differences between behavioural effects of treatments was determined using the Student's t-test or ANOVA, followed by a post-ANOVA test, as indicated. Radioligand binding data were analysed using non-linear curve fitting software (Prism, Graph Pad Software Inc.). IC50 values calculated from competition experiments were converted to Ki values using the Cheng-Prusoff (41) equation Ki=IC50/(1+L/Kd), where L=ligand concentration and Kd=the apparent dissociation constant for [^3H]-[3-MeHis]TRH.

Male Wistar rats [5] = assay: behavioural effects (activity score, WDS, locomotion) after i.p. administration; format: in vivo, rat; conditions: i.p.
Description: Methods: Behavioural studies were conducted using experimentally naïve Male Wistar rats (200-250 g) maintained in a temperature controlled (21° C.), artificially-lighted (12 hr light cycle) room with free access to food and water. Behavioural effects of TRH±TRH-DE inhibitor following intraperitoneal (i.p.) administration: On the day of the experiment, animals were singly housed in perspex cages (30×20×20 cm) and allowed to acclimatize for 20 min. After this period, two baseline measurements of behaviour were made at 10 and 5 min prior to administration of drugs. […] Animals were then observed by two independent observers who were blind to treatment, every 5 min for 30 sec. Blocks of 5 animals were treated at a time, 1 per drug group. Blocks were repeated 5 times. The occurrence of individual behaviours were noted using a behavioural check list, which included grooming, locomotion, rearing, chewing, sniffing, head weave, tail elevation, and/or straub tail and WDS behaviours. These behaviours were summed to yield an overall activity count. Animals were videotaped for separate subsequent analysis of WDS. All WDS behaviours occurring during each 5 min interval after drug administration were counted. The statistical significance of differences between behavioural effects of treatments was determined using the Student's t-test or ANOVA, followed by a post-ANOVA test, as indicated. Radioligand binding data were analysed using non-linear curve fitting software (Prism, Graph Pad Software Inc.). IC50 values calculated from competition experiments were converted to Ki values using the Cheng-Prusoff (41) equation Ki=IC50/(1+L/Kd), where L=ligand concentration and Kd=the apparent dissociation constant for [^3[…].

T1 sequence (A0A287AP33 1-1066): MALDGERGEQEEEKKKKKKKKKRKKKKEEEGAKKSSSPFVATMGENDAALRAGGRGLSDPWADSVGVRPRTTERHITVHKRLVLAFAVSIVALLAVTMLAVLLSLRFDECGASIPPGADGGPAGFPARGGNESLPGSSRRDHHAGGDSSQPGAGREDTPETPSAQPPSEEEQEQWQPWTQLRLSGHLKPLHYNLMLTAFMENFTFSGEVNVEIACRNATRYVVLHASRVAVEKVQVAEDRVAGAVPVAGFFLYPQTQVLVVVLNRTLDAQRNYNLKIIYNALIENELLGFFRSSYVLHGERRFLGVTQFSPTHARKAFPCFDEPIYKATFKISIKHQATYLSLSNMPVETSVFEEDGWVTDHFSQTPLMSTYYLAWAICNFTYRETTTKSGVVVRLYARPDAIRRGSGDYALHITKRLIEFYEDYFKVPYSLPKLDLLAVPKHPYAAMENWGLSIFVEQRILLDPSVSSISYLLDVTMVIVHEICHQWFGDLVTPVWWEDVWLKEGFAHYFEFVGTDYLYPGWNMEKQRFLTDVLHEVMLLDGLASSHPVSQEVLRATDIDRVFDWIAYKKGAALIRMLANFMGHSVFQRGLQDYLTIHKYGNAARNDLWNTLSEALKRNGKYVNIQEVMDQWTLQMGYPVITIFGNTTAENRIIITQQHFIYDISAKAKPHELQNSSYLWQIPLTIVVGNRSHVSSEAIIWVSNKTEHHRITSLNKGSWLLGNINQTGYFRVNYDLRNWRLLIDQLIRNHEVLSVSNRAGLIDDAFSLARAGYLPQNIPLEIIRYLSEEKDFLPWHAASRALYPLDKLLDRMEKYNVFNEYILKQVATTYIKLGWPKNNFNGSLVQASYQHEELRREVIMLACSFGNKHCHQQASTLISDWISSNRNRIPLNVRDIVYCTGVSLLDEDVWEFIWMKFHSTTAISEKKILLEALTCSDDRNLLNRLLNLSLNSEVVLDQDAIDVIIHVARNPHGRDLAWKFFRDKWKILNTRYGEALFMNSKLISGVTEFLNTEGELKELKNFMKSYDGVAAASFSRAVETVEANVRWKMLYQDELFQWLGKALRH

NC(=O)[C@@H]1CCCN1C(=O)[C@H](Cc1cnc[nH]1)NC(=O)[C@@H]1CCC(=O)N1 [Glp-His-ProNH2, L-pyroglutamyl-L-histidyl-L-prolineamide]
Km (TRH-DE [1]): 35 µM | number of WDS compared with vehicle (Male Wistar rats [2]; 5 μg alone): Neither TRH nor Glp-Asn-ProAMC alone produced a significantly greater number of WDS than vehicle | number of WDS during the observation period (Male Wistar rats [2]; TRH 5 μg ± Glp-Asn-ProAMC 5 μg, mean±S.E., n=6): 3.33±1.23 WDS/30 min | hydrolysis by TRH-DE (release of Glp) (TRH-DE [3]): degraded fully | hydrolysis by TRH-DE (release of Glp) (TRH-DE [3]; listed as TRH): no TRH (RT 8.566 min) remained | Vmax (TRH-DE [3]; estimated from HPLC rates of hydrolysis using Vmax=vo{(Km+[S])/[S]}): 2.63 ± 0.26 (11) U mg^−1 | Rate of hydrolysis (TRH-DE [3]; peptide 1 mM, 37° C., Glp production by HPLC, mean±S.D.): 2.54 ± 0.25 (11) U mg^−1 | pKi [4]: 7.65±0.17 | individual behaviours contributing to the activity score (Male Wistar rats [5]; 10 mg/kg): primarily promoted grooming, sniffing, and chewing behaviours | rat activity scores compared with saline (Male Wistar rats [5]; 10 mg/kg each, 40 min post injection): increase in rat activity scores throughout the 40 min period post injection | decline of behavioural responses with time (Male Wistar rats [5]; 10 mg/kg each, late observation period): tended to decline 35 min after i.p. administration | induction of WDS (Male Wistar rats [5]; 10 mg/kg, 40 min observation): immediate induction of WDS in all animals with the response gradually declining to zero after 40 min

From patent US7378397B2 (The Provost, Fellows and Scholars of the College of the …, priority 2000, dated 2008)
